Here are results for 27 compounds from patent US11369565B2, “Amino-pyrimidine skeletal muscle modulators” (Cytokinetics, Inc., priority 2010, dated 2022).

In this assay the test system is rabbit skeletal myofibrils (approximately 90% fast fibers). Briefly: Activation of fast skeletal myofibrils (PUMA coupled-enzyme ATPase assay at pCa25). In kind it is biochemical. Conditions: concentration at which the compound increased the enzymatic activity by 40%; calcium at pCa25; PM12 buffer pH 6.8. In short, it runs like this: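 Detergent-washed rabbit psoas myofibrils tested at calcium giving 25% of maximal rate (pCa25). ATPase activity tracked by pyruvate kinase/lactate dehydrogenase coupling, NADH oxidation read as absorbance at 340 nm, in PM12 buffer (12 mM Pipes, 2 mM MgCl2, 1 mM DTT, pH 6.8).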
As for `CC(=O)NCc1cnn(-c2cnc(NC(C)(C)c3ncccc3Cl)nc2)c1` [N-{[1-(2-{[1-(3-chloro(2-pyridyl))-isopropyl]amino}pyrimidin-5-yl)pyrazol-4-yl)]methyl}acetamide], the “Mean AC1.4” value is “D (D=>20 uM)”. In the case of `CC(=O)Nc1ccccc1-c1cnc(NC[C@]2(c3ncccc3F)C[C@H](F)C2)nc1` [N-{2-[2-({[3-fluoro-1-(3-fluoro(2-pyridyl))cyclobutyl]methyl}amino)pyrimidin-5-yl]phenyl}acetamide] it was “D (D=>20 uM)”; in that of `CC(C)(Nc1ncc(-c2cnc3c(c2)NC(=O)C3)cn1)c1ncccc1Cl` [6-(2-{[1-(3-chloro(2-pyridyl))-isopropyl]amino}pyrimidin-5-yl)-2-pyrrolino[3,2-b]pyridin-2-one], “D (D=>20 uM)”. In the case of `CC(C)(CNc1ncc2c(n1)CCN(S(C)(=O)=O)C2)c1ccc(F)cc1` [2-{[2-(4-fluorophenyl)-2-methylpropyl]amino}-6-(methylsulfonyl)-5,6,7,8-tetrahydropyridino[4,3-d]pyrimidine] it was “B (B=1-10 uM)”; in that of `CC(C)(Nc1ncc(-c2cc(C(N)=O)n[nH]2)cn1)c1ncccc1Cl` [5-(2-{[1-(3-chloro(2-pyridyl))-isopropyl]amino}pyrimidin-5-yl)pyrazole-3-carboxamide], “C (C=10-20 uM)”; in that of `O=C(Nc1cccc(F)c1)c1cnc(NCC2(c3ncccc3F)CCC2)nc1` [[2-({[(3-fluoro(2-pyridyl))cyclobutyl]methyl}amino)pyrimidin-5-yl]-N-(3-fluorophenyl)carboxamide], “D (D=>20 uM)”. Next, “ethyl 1-[(2-{[2-(4-fluorophenyl)-2- methylpropyl]amino}pyrimidin-5- yl)carbonylamino] cyclopropanecarboxylate”: “D (D=>20 uM)”; `Cc1nc(NC[C@]2(c3ncccc3F)C[C@H](F)C2)ncc1-c1cccc(C(N)=O)c1` [3-[2-({[3-fluoro-1-(3-fluoro(2-pyridyl))cyclobutyl]methyl}amino)-4-methylpyrimidin-5-yl]benzamide]: “B (B=1-10 uM)”. Consider `CC(C)(Nc1ncc(-c2csc(C(N)=O)n2)cn1)c1ncccc1Cl` [4-(2-{[1-(3-chloro(2-pyridyl))-isopropyl]amino}pyrimidin-5-yl)-1,3-thiazole-2-carboxamide], for which the “Mean AC1.4” value is on record as “C (C=10-20 uM)”.

In the case of `CC(C)(CNc1ncc(-c2cc(C(N)=O)ccc2F)cn1)c1ncccc1Cl` [3-(2-{[2-(3-chloro(2-pyridyl))-2-methylpropyl]amino}pyrimidin-5-yl)-4-fluorobenzamide], the “Mean AC1.4” value is given as “A (A=<1 uM)”. Next, `CC(C)(C)OC(=O)NCCC(=O)NCc1cnn(-c2cnc(NC(C)(C)c3ncccc3Cl)nc2)c1` [3-[(tert-butoxy)carbonylamino]-N-{[1-(2-{[1-(3-chloro(2-pyridyl))-isopropyl]amino}pyrimidin-5-yl)pyrazol-4-yl)]methyl}propanamide]: “D (D=>20 uM)”. In the case of `CC(C)(Nc1ncc(-c2cnnc(C(N)=O)c2)cn1)c1ncccc1Cl` [5-(2-{[1-(3-chloro(2-pyridyl))-isopropyl]amino)pyrimidin-5-yl)pyridazine-3-carboxamide] it was “B (B=1-10 uM)”; in that of `NC(=O)Cc1cnc(-c2cnc(NCC3(c4ncccc4Cl)CCC3)nc2)s1` [2-{2-[2-({[(3-chloro-2-pyridyl)cyclobutyl]methyl}amino)pyrimidin-5-yl]-1,3-thiazol-5-yl}acetamide], “A (A=<1 uM)”. In the case of `Cc1cc(NC(=O)c2cnc(NCC3(c4ncccc4F)CCC3)nc2)[nH]n1` [[2-({[(3-fluoro(2-pyridyl))cyclobutyl]methyl}amino)pyrimidin-5-yl]-N-(3-methylpyrazol-5-yl)carboxamide] it was “D (D=>20 uM)”.

With `CC(C)(Nc1ncc(-c2ccc(C(=O)O)s2)cn1)c1ncccc1Cl` [5-(2-{[1-(3-chloro(2-pyridyl))-isopropyl]amino}pyrimidin-5-yl)thiophene-2-carboxylic acid], the “Mean AC1.4” value was “D (D=>20 uM)”. Next, `CC(C)(Nc1ncc(-c2ncc(CNC(=O)CN)s2)cn1)c1ncccc1F` [2-amino-N-{[2-(2-{[1-(3-fluoro(2-pyridyl))-isopropyl]amino}pyrimidin-5-yl)(1,3-thiazol-5-yl)]methyl}acetamide]: “D (D=>20 uM)”; `COc1ncc(-c2cnc(NC(C)(C)c3ncccc3Cl)nc2)cc1C#N` [5-(2-{[1-(3-chloro(2-pyridyl))-isopropyl]amino}pyrimidin-5-yl)-2-methoxypyridine-3-carbonitrile]: “D (D=>20 uM)”. Next, `NC(=O)c1cc(-c2cnc(NC3(c4ncccc4F)CCC3)nc2)ccn1` [4-(2-{[(3-fluoro-2-pyridyl)cyclobutyl]amino}pyrimidin-5-yl)pyridine-2-carboxamide]: “B (B=1-10 uM)”; `O=c1cc(O)ccn1-c1cnc(NC[C@]2(c3ncccc3F)C[C@H](F)C2)nc1` [1-[2-({[3-fluoro--1-(3-fluoro(2-pyridyl))cyclobutyl]methyl)amino)pyrimidin-5-yl]-4-hydroxyhydropyridin-2-one]: “D (D=>20 uM)”; `COc1cc(-c2cnc(NC[C@]3(c4ncccc4F)C[C@H](F)C3)nc2)nc(OC)n1` [[5-(2,6-dimethoxypyrimidin-4-yl)pyrimidin-2-yl]{[3-fluoro-1-(3-fluoro(2-pyridyl))cyclobutyl]methyl}amine]: “D (D=>20 uM)”. Next, `CC(C)(Nc1ncc(-c2ncc(C(N)=O)s2)cn1)c1ncccc1F` [2-(2-{[1-(3-fluoro(2-pyridyl))-isopropyl]amino}pyrimidin-5-yl)-1,3-thiazole-5-carboxamide]: “D (D=>20 uM)”; `COc1ccnc(C(C)(C)Nc2ncc(-c3ncc(C(N)=O)s3)cn2)n1` [2-(2-{[1-(4-methoxypyrimidin-2-yl)-isopropyl]amino}pyrimidin-5-yl)-1,3-thiazole-5-carboxamide]: “D (D=>20 uM)”. `CC(C)(Nc1ncc(-c2ncc(CNC(=O)c3cnc(O)[nH]3)s2)cn1)c1ncccc1F` [N-{[2-(2-{[1-(3-fluoro(2-pyridyl))-isopropyl}amino}pyrimidin-5-yl)(1,3-thiazol-5-yl)]methyl}(2-hydroxyimidazol-5-yl)carboxamide]: the “Mean AC1.4” value was “C (C=10-20 uM)”. As for `CSc1ccc(C(C)(C)Nc2ncc(-c3cccc(C#N)c3)cn2)cc1` [3-(2-{[1-methyl-1-(4-methylthiophenyl)ethyl]amino}pyrimidin-5-yl)benzenecarbonitrile], the “Mean AC1.4” value is “D (D=>20 uM)”.

In the case of `Cn1nccc1NC(=O)c1cnc(NCC2(c3ncccc3F)CCC2)nc1` [[2-({[(3-fluoro(2-pyridyl))cyclobutyl]methyl)amino)pyrimidin-5-yl]-N-(1-methylpyrazol-5-yl)carboxamide], the “Mean AC1.4” value is reported as “D (D=>20 uM)”. In the case of `CC(C)(Nc1ncc(-c2nccc(C(N)=O)n2)cn1)c1ncccc1F` [2-(2-{[1-(3-fluoro(2-pyridyl))-isopropyl]amino}pyrimidin-5-yl)pyrimidine-4-carboxamide] it was “D (D=>20 uM)”. Next, `CC(C)(O)c1cnn(-c2cnc(NC(C)(C)c3ncccc3Cl)nc2)c1` [2-[1-(2-{[1-(3-chloro(2-pyridyl))-isopropyl]amino}pyrimidin-5-yl)pyrazol-4-yl]propan-2-ol]: “D (D=>20 uM)”.
